The values that follow come from the METLIN SMRT retention time set (Domingo-Almenara et al. 2019).

A short description of this data set: gradient 5% acetonitrile 3 min, to 50% in 2 min, to 85% in 15 min, held 3 min, 100 µL/min. The conditions noted are these: column: Zorbax Extend-C18 2.1 x 50 mm; eluents: water / acetonitrile, 0.1% formic acid. The gist of the method: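 Using water and acetonitrile that each contained 0.1% formic acid, mixtures of ~100 pure standards were separated at 100 μL/min on a Zorbax Extend-C18 column (2.1 × 50 mm, 1.8 μm). The HPLC fed a quadrupole time-of-flight mass spectrometer working in positive and negative ionization mode, with dead and dwell volumes of 40 μL and 900 μL. Data were acquired over 3 months. Retention time was read from computationally picked adduct peaks after manual inspection of each.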
On to `CCCCC(=O)Nc1ccc(N(C)CCc2c(C)nn(C)c2C)c(C(=O)O)c1`, for which the RP-LC retention time was 576 s.

As for `O=C(CCc1c(-c2ccccc2)nc2ccccn12)Nc1ccc(Cl)cc1F`, the RP-LC retention time is 715 s.

In turn, `Cc1cccc(OCC(=O)N2CCN(S(=O)(=O)c3c(C)nn(C(C)C)c3C)CC2)c1` came in with an RP-LC retention time of 904 s.

As to `O=C(NCc1ccc(Cl)cc1)C1CCN(c2cc(N3CCOCC3)ncn2)CC1`, the RP-LC retention time was 663 s.

`O=C(Nc1nnc(SCc2ccc(Br)cc2)s1)c1ccccc1F`: the RP-LC retention time was found to be 1020 s.

`Cc1cccc(S(=O)(=O)NC2CCN(c3ccccc3)C2=O)c1` (stereo not given) returned an RP-LC retention time of 875 s.

`Cc1cc(Cl)ccc1OCc1nc(-c2ccc(NS(=O)(=O)c3cccs3)cc2)no1` gave an RP-LC retention time of 1180 s.

`CC(C)CNC(=O)CCc1nc2ccccc2n(CC(=O)NC(C)CCc2ccccc2)c1=O` (stereo not given) gave an RP-LC retention time of 869 s.

`COC(=O)C(N)Cc1ccc(Cl)cc1` (stereo not given) registered an RP-LC retention time of 653 s.

Molecule `O=C(Cn1c(CN2CCCCC2)nc2ccccc21)N1CCOCC1` registered an RP-LC retention time of 583 s.

Turning to `O=C(Nc1cccc(Cl)c1)c1cn(CC(O)c2ccc3c(c2)OCO3)nn1` (stereo not given), the RP-LC retention time came to 863 s.

`CCC(=O)N1CCc2sc(C(=O)N3CCN(c4ccc(Cl)cc4)CC3)cc2C1`: the RP-LC retention time came to 899 s.

`COc1ccc2[nH]c(=O)c(CCC(=O)NCCCN3CCCCC3C)cc2c1` (stereo not given) registered an RP-LC retention time of 589 s.

In turn, `Cc1cc(C)cc(NC(=O)C2CCN(c3nccnc3Sc3cccc(C)c3)CC2)c1` registered an RP-LC retention time of 1150 s.

Take `CN(C)c1nn(CC(=O)Nc2ccc(S(C)(=O)=O)cc2)cc1-c1ccccc1`: the RP-LC retention time was 786 s.

`O=C(Nc1ccc(Br)cc1)C1CC(=O)N(c2n[nH]c3cccc(F)c23)C1` (stereo not given) registered an RP-LC retention time of 782 s.

Turning to `CCN1c2cc(F)ccc2C(=O)NC12CCN(C(=O)c1ccc(OC)cc1)CC2`, the RP-LC retention time was 780 s.

`Cc1ccc(Cn2c(C(=O)NCc3ccccc3)cc3sccc32)cc1`: the RP-LC retention time worked out at 864 s.

As to `CCCN(Cc1ccc(F)cc1)Cc1cc(=O)n2cc(Cl)ccc2n1`, the RP-LC retention time is 659 s.

Regarding `Cc1c(Cl)cccc1NC(=O)c1ccc(-n2ccnc2)nn1`, the RP-LC retention time worked out at 652 s.

Regarding `Cc1cc(C(=O)Nc2c3c(nn2C)CCC3)no1`, the RP-LC retention time came out at 611 s.

The molecule `O=C(O)c1ccc(Nc2c(-c3ccccc3)nc3cnccn23)cc1` gave an RP-LC retention time of 697 s.

`CCn1c(=O)c(N2CCN(C(=O)Nc3ccccc3Cl)CC2)nc2ccccc21`: the RP-LC retention time was 987 s.

Take `CCn1cccc1-c1nc(C)c(C(=O)Nc2ccc(C(C)C)cc2)s1`: the RP-LC retention time was determined as 1310 s.

`COc1cccc(S(=O)(=O)N2CCC(c3noc(-c4ccccc4C)n3)CC2)c1` showed an RP-LC retention time of 1140 s.

`COC(=O)N1CCN(CCNC(=O)Cc2cccc3ccccc23)CC1`: the RP-LC retention time worked out at 574 s.

The molecule `COc1ccc2c(c1)CC(NC(=O)N1CCN(Cc3ccccc3)CC1)CO2` (stereo not given) yielded an RP-LC retention time of 637 s.

For the molecule `COc1ccc(NC(=O)Nc2cnc3c(c2)CCC3)cc1`, the RP-LC retention time was determined as 516 s.

For the molecule `CCOC(=O)CSc1nnc(NC(=O)C2CC(=O)N(c3ccc(F)cc3)C2)s1` (stereo not given), the RP-LC retention time stood at 712 s.

In the case of `COc1ccc(-c2nnc(N3CCC(C(=O)NCc4cc(F)ccc4F)CC3)o2)cc1`, the RP-LC retention time amounted to 824 s.

Molecule `CCNc1cc(N2CCCC(CCC(=O)N3CCC(C(=O)OCC)CC3)C2)ncn1` (stereo not given) came in with an RP-LC retention time of 646 s.

In the case of `COc1ccc2nccc(/C=C/c3ccnc4ccc(OC)cc34)c2c1`, the RP-LC retention time worked out at 671 s.

`Cc1ccc(-c2nnc(-c3nn(C)c4c3CN(S(=O)(=O)c3ccc5c(c3)OCCO5)CC4)o2)cc1`: the RP-LC retention time came out at 975 s.

Take `Cc1ccc(-c2nc(N3CCCCCC3)c3ccccc3n2)cc1`: the RP-LC retention time was determined as 833 s.

`Cc1ccc(S(=O)(=O)N2CCC3(CC2)NCCN=C3NCc2cccc(F)c2)cc1C` had an RP-LC retention time of 745 s.

Turning to `O=C(c1ccc2c(c1)CCN2C(=O)C1CC1)N1CCN(c2ccccc2)CC1`, the RP-LC retention time came out at 829 s.

`CCN1CCCn2cc(S(=O)(=O)N(CC)c3ccccc3)cc2C1=O` displayed an RP-LC retention time of 780 s.

`CCN1C(=O)c2ccccc2Oc2ccc(C(=O)NCc3ccc(N(C)C)cc3)cc21`: the RP-LC retention time is 670 s.

In the case of `Cc1cc(S(=O)(=O)N2CCC(n3cnnc3C)CC2)ccc1F`, the RP-LC retention time amounted to 702 s.

Turning to `CC(C)n1cc2cc(C(=O)N3CCN(Cc4ccc5c(c4)OCO5)CC3)sc2c1`, the RP-LC retention time came out at 696 s.

Consider `O=c1n(CC2CC2)nc2n1CCC(NS(=O)(=O)Cc1ccccc1F)CC2` (stereo not given), for which the RP-LC retention time was determined as 706 s.

`CCn1ccc(C(=O)Nc2ccc(OCc3nnc(-c4ccccc4)o3)cc2)n1`: the RP-LC retention time came to 868 s.

In turn, `Cn1cccc(C(=O)Nc2ccc(N3CCCS3(=O)=O)cc2)c1=O` had an RP-LC retention time of 644 s.

Consider `COc1ccc(C2(C(=O)N3CCCOCCNC(=O)[C@@H]4CCCC[C@@H]43)CC2)cc1`, for which the RP-LC retention time stood at 750 s.

In turn, `CC1CCN(C(=O)C2CCN(S(=O)(=O)c3ccc4c(c3)CCCC(=O)N4)CC2)CC1` displayed an RP-LC retention time of 744 s.

In turn, `COC(=O)c1ccc(C(=O)Nc2nnc(-c3cccs3)o2)cc1` showed an RP-LC retention time of 710 s.

`O=C(Cc1cccs1)Nc1nnc(-c2ccccc2Cl)s1` displayed an RP-LC retention time of 845 s.

`COc1cccc(CN2CCC(N3C[C@H](OC)[C@@H]3c3cccnc3)CC2)n1` returned an RP-LC retention time of 504 s.

As to `Cc1cccc(CC(=O)Nc2c(C(=O)N3CCN(c4ccccn4)CC3)oc3ccccc23)c1`, the RP-LC retention time is 705 s.

With `COc1ccc(C2(C(=O)N3CCCC(CN4CCCC4)CC3)CC2)cc1` (stereo not given), the RP-LC retention time stood at 618 s.

The molecule `COc1ccc(CNC(=O)c2ccc3c(=O)n(-c4cccc(OC)c4)c(N4CCCC4)nc3c2)cc1` showed an RP-LC retention time of 833 s.

As for `COCCNC(=O)C1CCN(c2cncnc2N2CCCC2)CC1`, the RP-LC retention time is 580 s.

As for `CCN1CCCn2cc(S(=O)(=O)N3CCN(c4ccccc4OC)CC3)cc2C1=O`, the RP-LC retention time came to 784 s.

On to `COCc1nc(CCNS(=O)(=O)c2ccc(OC)cc2)no1`, for which the RP-LC retention time came out at 731 s.

In the case of `CCOC(=O)c1[nH]c(C)c(CCC(=O)N2CCC(C(=O)NCc3ccccc3OCC)CC2)c1C`, the RP-LC retention time was found to be 832 s.

`Cc1c(C(=O)NCC2CC2)cnn1-c1cc(-c2nc(C3CC3)no2)ccn1` showed an RP-LC retention time of 909 s.

Turning to `O=C1CCN(C(=O)c2cccs2)CCCC(CO)CCN1` (stereo not given), the RP-LC retention time stood at 581 s.

`Cc1ccc(-c2ocnc2C(=O)Nc2ccc(Br)cc2F)o1` yielded an RP-LC retention time of 1290 s.

Molecule `Cc1nc(-c2cc(S(=O)(=O)NCc3ccc(F)c(Cl)c3)c(C)s2)cs1` came in with an RP-LC retention time of 1010 s.

In turn, `O=C1COc2cc(S(=O)(=O)N3CCCC3C(=O)NC3CCCCCCC3)c(Cl)cc2N1` (stereo not given) came in with an RP-LC retention time of 864 s.

`CCNC(=O)CN1c2ccc(F)cc2-c2ccccc2S1(=O)=O` showed an RP-LC retention time of 786 s.

`COc1ccc(C2=Nc3ccccc3N(CC(=O)Nc3ccc4c(c3)OCCO4)C(=O)C2)cc1` had an RP-LC retention time of 913 s.

Take `CN(C)C(=O)c1ccc2c(c1)N(CC(=O)NCCCN1CCOCC1)C(=O)C1CCCCN21` (stereo not given): the RP-LC retention time was determined as 593 s.

Molecule `O=C(CC1CCCC1)NCCc1nc2cccnc2n1-c1ccccc1` yielded an RP-LC retention time of 736 s.

`COc1cccc(Cn2nc3n(Cc4ccc(C)cc4)c(=O)c4nn(C)cc4n3c2=O)c1` came in with an RP-LC retention time of 935 s.

The molecule `CC(C)OCCCNC(=O)C1Cn2cccc2C(=O)N1C` (stereo not given) registered an RP-LC retention time of 621 s.

The molecule `CCC1Oc2ccc(S(=O)(=O)N3CCC(C(=O)Nc4ccc(C)cc4Cl)CC3)cc2NC1=O` (stereo not given) registered an RP-LC retention time of 971 s.

With `NC(=O)C1CCN(C(=O)C2CCN(C(=O)C3CC(=O)N(c4ccc(F)cc4)C3)CC2)CC1` (stereo not given), the RP-LC retention time came to 599 s.

`Cc1nnc2ccc(-c3noc(-c4ccc(F)cc4)n3)cn12` registered an RP-LC retention time of 865 s.

`O=S(=O)(c1cc(F)cc(F)c1)N1CCN(Cc2cccc(F)c2)C2(CCOCC2)C1` gave an RP-LC retention time of 958 s.

In the case of `Cc1cc(C(=O)N2CCCC2c2ccccc2Cl)on1` (stereo not given), the RP-LC retention time was 889 s.

`CCCn1c(=O)c(C)nc2cc(-c3noc(C4CC(=O)N(c5cccc(Cl)c5)C4)n3)ccc21` (stereo not given) yielded an RP-LC retention time of 1050 s.

As for `CSc1ccc(NC(=O)N2CCN(C3=CC4=NCC(C)N4C=N3)CC2)cc1` (stereo not given), the RP-LC retention time stood at 638 s.

In turn, `COc1ccc(-c2cn3c(CC(=O)Nc4cccc(Cl)c4)csc3n2)cc1OC` showed an RP-LC retention time of 791 s.

`CC(C)(C)C(O)CCNC(=O)C(=O)Nc1cccc(N2CCCCC2=O)c1` (stereo not given) registered an RP-LC retention time of 650 s.

In the case of `CCOC(=O)CCC(=O)Nc1cccc2ccc(-n3ccnc3)nc12`, the RP-LC retention time came to 586 s.

Take `Clc1ccc2ncnc(NCc3ccc4c(c3)OCO4)c2c1`: the RP-LC retention time worked out at 694 s.

Molecule `O=C(Nc1cccc(N2CCCCC2=O)c1)OCc1ccccc1` registered an RP-LC retention time of 724 s.

The molecule `CN1CCC(OC2CCN(C(=O)c3ccc(Br)o3)CC2)CC1` gave an RP-LC retention time of 597 s.

Take `CC1Cc2ccccc2N1C(=O)C1CCN(C(=O)c2cc(-c3ccncc3)n[nH]2)CC1` (stereo not given): the RP-LC retention time came to 645 s.
